Results taken from patent publication US20190030053A1, “COMPOSITION FOR INCREASING EXPRESSION OF PGC-1alpha” (BENEBIOSIS CO., LTD., priority 2016, published 2019).
Entries after “also recorded” stand apart in the source; their conditions may differ.

Tests used:
PGC-1α and related genes [1] = test: Gene expression in nerve cell test (Neuro-2a); assay type: cell-based, mouse; conditions: Neuro-2a cells, 0.1 mg/ml, 24 hours
Experimental: Neuroblasts (Neuro-2a, American Type Culture Collection, USA) were cultured in DMEM supplemented with 10% fetal bovine serum, […], and 0.1 mg/mL streptomycin in each well of 6-well plates at 37° C. in 5% CO2/95% atmospheric conditions. Neuro-2a cells correspond to the fast-growing mouse neuroblastoma cell line. After Neuro-2a cells were seeded at a density of 6000 cells per well, SL was added at a concentration of 0.1 mg/ml into the wells showing a confluency of about 5×10^6 cells/ml, followed by incubation for 24 hours under the same conditions. SL (3′-SL or 6′-SL) materials were the same as those described in Example 1. Unless otherwise stated, SL (3′-SL or 6′-SL) and the use concentrations thereof are understood to be the same as those described in Example 1. The negative control group was treated with physiological saline with 1/1000 of the volume of the medium. The cells treated with each sample were incubated at 37° C. for 24 hours, and then washed twice with cool saline solution, and RNA was extracted using TRIzol agent (Invitrogen). The expression patterns of PGC-1α and related genes were measured by using pre-designed primers and probes (Applied Biosystems; PGC-1α, Mm00447181_m1, GAPDH, and Mm99999915_q1) for the synthesized cDNA and analysis targets (Fndc5, PGC-1α, Erra, UCP1, BDNF, SOD2, and GPX1). […]

[2] = system: Alzheimer's disease model mice (3×Tg); test: Cognitive ability test (Morris water maze) in Alzheimer's disease models; assay type: in vivo, mouse; conditions: 3×Tg mice, oral 0.1 mg/kg/day; test for 7 days
Text: In order to investigate the changes in gene expression and cognitive ability by the treatment with SL (3′-SL & 6′-SL) compositions in Alzheimer's brain disease models, 6-week-old mice were purchased from Central Lab Animal (Korea). Water was freely accessible, and a commercially available pellet feed (Dooyeul Biotech, Korea) was given for two weeks. At 8 weeks of age, the mice were divided into three groups (composed of eight mice for each group): Eight 8-week-old male c57/BL6 mice (normal mice; initial body weight, average 35.6±3.3 g) treated with a normal diet were used for a control group. […]

PGC-1α and related genes [3] = test: Abdominal fat gene expression in high-fat diet ob mouse models; assay type: in vivo; conditions: ob mice, oral 0.1 mg/kg/day, 10 weeks
Experimental: In order to investigate gene expression changes and topical fat removal effects by treatment with SL (3′-SL & 6′-SL) composition in mouse models, 4-week-old male ob mouse (C57BL/6J-ob/ob) models were purchased from Central Lab Animal (Korea). Water was freely accessible, and a high-fat diet (Rodent Diet with 60 kcal % fat) was supplied for two weeks. […]
Sialyllactose or DW was orally administered daily. […] The dietary intake and body weight change were measured every 5 days. […]
Gene expression changes by the treatment with SL (3′-SL & 6′-SL) compositions were quantitatively compared in the abdominal part. RNA was extracted by TRIzol agent (Invitrogen). cDNA was synthesized by using RNA, which has been extracted as above and quantified, and a reverse transcription system (Promega, USA). The expression patterns of PGC-1α and related genes were measured by using pre-designed primers and probes (Applied Biosystems; PGC-1α, Mm00447181_m1, GAPDH, and Mm99999915_q1) for the synthesized cDNA and analysis targets (Fndc5, PGC-1α, Erra, UCP1, SOD2, and GPX1). […]

Row | SMILES | expression levels of analysis targets (Fndc5, PGC-1α, Erra, UCP1, BDNF, SOD2, GPX1) vs negative control (PGC-1α and related genes [1]) | escape time in the cognitive ability test (Morris water maze) [2] | expression levels of analysis targets (Fndc5, PGC-1α, Erra, UCP1, SOD2, GPX1) in abdominal fat vs negative control (PGC-1α and related genes [3])
1 | CC(=O)N[C@H]1[C@H]([C@H](O)[C@H](O)CO)O[C@@](O[C@H]2[C@@H](O)[C@@H](CO)O[C@@H](O[C@H]3[C@H](O)[C@@H](O)C(O)O[C@@H]3CO)[C@@H]2O)(C(=O)O)C[C@@H]1O (stereo partly drawn) [3′-SL, α-NeuNAc-(2→3)-β-D-Gal-(1→4)-D-Glc] | significant increases; also recorded: lower than that of 6′-SL | relatively low compared with 6′-SL | relatively low compared with 6′-SL
2 | CC(=O)N[C@H]1[C@H]([C@H](O)[C@H](O)CO)O[C@@](OC[C@H]2O[C@@H](O[C@H]3[C@H](O)[C@@H](O)[C@H](O)O[C@@H]3CO)[C@H](O)[C@@H](O)[C@H]2O)(C(=O)O)C[C@@H]1O [6′-SL, α-NeuNAc-(2→6)-β-D-Gal-(1→4)-D-Glc] | significant increases | definitely fast | about two-time significant increases
